The values below come from patent US4891432A, “Phenoxy imidazole compound” (Yamanouchi Pharmaceutical Co., Ltd., priority 1986, dated 1990).

The test system of experiment [1] is mouse leukemia L1210 cells. Put plainly: Effectiveness against mouse leukemia L1210 cells (in vitro test), cytotoxicity by trypan blue dye exclusion. The note with it: L1210 cells, 3 days, 37° C., read-out: IC50 (mean dose producing 50%-killing of tumor cells). In kind it is cell-based. On the procedure:
Effectiveness against mouse leukemia L1210 cells (in vitro test)
A suspension of cells in culture medium was transferred into wells in a microplate in an amount of 1×10^5 L1210-cells/well. Test sample diluted with a culture medium was added to the suspension in each well, and the mixture was incubated on the medium at 37° C. for 3 days in an atmosphere of air containing 5% carbon dioxide.
Thereafter, the incubated cells were recovered from the microplate and the number of live cells was counted by the dye exclusion test using a 0.5% solution of trypan blue and by using a hemocytometer.

The next experiment relates to Ehrlich solid tumor. In words: Test 2: Anti-tumor test against Ehrlich solid tumor. It is filed as in vivo, ddY/SLC mice. As to conditions: i.p., days 1 through 9, tumor weight day 21; for inhibition in vivo at 100 mg/kg / inhibition in vivo at 50 mg/kg: Mus musculus, Ehrlich, ip, 504 h, read-out: Growth Inhibition Rate. As to the method:
Anti-tumor test against Ehrlich solid tumor
Ehrlich tumor cells, 2×10^6, on Day 7 after intraperitoneal transplantation to ddY/SLC mice, were subcutaneously transplanted in the left abdomen of ddY/SLC mice (5week age, male)--10 to a group. The active component was intraperitoneally administered in a definite dose 24 hours after the transplantation. (administration: once per one day; 1 through 9 days)
Growth inhibition rate (%)=(C-T)/C×100
T: mean tumor weight in the active component-administered group
c: mean tumor weight in the control group

Like-named read-outs stand apart in the source and are kept apart here.

The term IC50 denotes the midpoint of a concentration-inhibition curve. With “6-[3-[6-[5-(1-imidazolyl]pyridadyloxy]]-2,2-dimethylhexanoic acid ethyl ester [Example 60]”, in experiment [1], the IC50 was found to be 3.7 µM. Besides, the “Growth Inhibition Rate” value in the experiment on Ehrlich solid tumor (50 mg/kg) was 40.5%.
Regarding “6[p-[5-(1-imidazolyl)pentyloxy]phenoxy]-2,2-dimethylhexaneheptylamide [Example 61]”, the IC50 in experiment [1] came out at 5.9 µM. In the experiment with Ehrlich solid tumor (100 mg/kg), the “Growth Inhibition Rate” value is given as 38.9%.
Take `CC(C)(CCCCOc1ccc(OCCCCCn2ccnc2)cc1)C(N)=O` [Example 1, 6-[p-[5-(1-imidazol-yl)pentyloxy]phenoxy]-2,2-dimethylhexanamide]: in experiment [1] (Mus musculus, 72 h), the IC50 is 7.2 µM. Further, the inhibition in vivo at 100 mg/kg in the experiment with Ehrlich solid tumor (100 mg/kg) was found to be 68.5%.
On to `CC(C)NC(=O)C(C)(C)CCCCOc1ccc(OCCCCCn2ccnc2)cc1` [Example 2], for which the IC50 in experiment [1] (Mus musculus, 72 h) came out at 7.5 µM. The inhibition in vivo at 50 mg/kg in the experiment with Ehrlich solid tumor (50 mg/kg) worked out at 52.9%.
The like results for `CC(C)(CCCCOc1ccc(OCCCCCn2ccnc2)cc1)C(=O)NCc1ccccc1` [Example 3] were, in that order, 4 µM and 58.5%.
Regarding `CC(C)(CCCCOc1ccc(OCCCCCn2cccn2)cc1)C(N)=O` [Example 4], the IC50 in experiment [1] (Mus musculus, 72 h) came out at 4.9 µM. Moreover, the inhibition in vivo at 100 mg/kg with Ehrlich solid tumor (100 mg/kg) was determined as 50.1%.
For `CC(C)(CCCCOc1ccc(OCCCCCn2ccnc2)cc1)C(=O)OCc1ccccc1` [Example 5, benzyl 6-[p-[5-(1-imidazolyl)pentyloxy]phenoxy]-2,2-dimethylhexanoate], the half-maximal inhibitory concentration (IC50) in experiment [1] (Mus musculus, 72 h) was 6.3 µM. The inhibition in vivo at 100 mg/kg in the experiment on Ehrlich solid tumor (100 mg/kg) stood at 39.3%.
The like results for `CC(C)(C)OC(=O)C(C)(C)CCCCOc1ccc(OCCCCCn2ccnc2)cc1` [Example 6] were, in that order, 6.8 µM and 43.8%.
The like results for `CCCCCCCCCOc1ccc(OCCCCCn2ccnc2)cc1` [Example 7, [p-[5-(1-imidazolyl)pentyloxy]phenoxy]nonane] were, in that order, 11 µM and 45%.
The like results for `OCCCCCCOc1ccc(OCCCCCn2ccnc2)cc1` [Example 9] were, in that order, 12 µM and 30.7%.
For the compound `CCOC(=O)COc1ccc(OCCCCCn2ccnc2)cc1` [Example 10, ethyl p-[5-(1-imidazol-yl)pentyloxy]phenoxyacetate], the inhibition in vivo at 100 mg/kg in the experiment on Ehrlich solid tumor (100 mg/kg) stood at 23.7%.
Turning to `COc1ccc(OCCCCCn2ccnc2)cc1` [Example 11, 1-[5-(1-imidazolyl)pentyloxy]-4-methoxybenzene], the 50% inhibitory concentration (IC50) in experiment [1] (Mus musculus, 72 h) was determined as 40 µM. The inhibition in vivo at 100 mg/kg with Ehrlich solid tumor (100 mg/kg) was 33.4%.
Consider `COC(=O)CCCCC(=O)Oc1ccc(OCCCCCn2ccnc2)cc1` [Example 12], for which the IC50 in experiment [1] (Mus musculus, 72 h) is 8.5 µM.
Still for that read-out and setting: the figure for `CCOC(=O)C(C)(C)CCCCOc1ccc(OCCCCCOCc2cccnc2)cc1` [Example 13, ethyl 6-[p-[5-(3-pyridylmethyloxy)pentyloxy]phenoxy]-2,2-dimethylhexanoate] is 7.6 µM; for `CCOC(=O)C(C)(C)CCCCOc1ccc(OCCCCCOc2cccnc2)cc1` [Example 14] it is 4.2 µM.
Consider `CCOC(=O)C(C)(C)CCCCOc1ccc(OCCCCCn2cccc2)cc1` [Example 15], for which, in experiment [1] (Mus musculus, 72 h), the half-inhibitory concentration (IC50) is 28.9 µM. Moreover, in the experiment with Ehrlich solid tumor (100 mg/kg), the inhibition in vivo at 100 mg/kg was determined as 38.8%.
The like results for `CCOC(=O)C(C)(C)CCCCOc1ccc(OCCCCCn2cccn2)cc1` [Example 16] were, in that order, 8.2 µM and 42.2%.
Regarding `CCOC(=O)C(C)(C)CCCCOc1ccc(OCCCCCOCc2ccccn2)cc1` [Example 17], the IC50 in experiment [1] (Mus musculus, 72 h) worked out at 13.7 µM. Also, the inhibition in vivo at 50 mg/kg in the experiment on Ehrlich solid tumor (50 mg/kg) was found to be 36.6%.
Turning to `CCOC(=O)C(C)(C)CCCCOc1ccc(OCCCCCOCCc2ccccn2)cc1` [Example 18], the IC50 in experiment [1] (Mus musculus, 72 h) was found to be 9.5 µM. The inhibition in vivo at 100 mg/kg with Ehrlich solid tumor (100 mg/kg) worked out at 34.9%.
The like results for `CCOC(=O)C(C)(C)CCCCOc1ccc(OCCCCCSc2ccncc2)cc1` [Example 19, ethyl 6-[p-[5-(4-pyridylmercapto)pentyloxy]phenoxy]-2,2-dimethylhexanoate] were, in that order, 5.7 µM and 47.6%.
The like results for `CCOC(=O)C(C)(C)CCCCOc1ccc(OCCCCCSc2nccn2C)cc1` [Example 20] were, in that order, 8.2 µM and 52.8%.
For `CCOC(=O)C(C)(C)CCCCOc1ccc(OCCCCCSc2nnnn2C)cc1` [Example 22, ethyl 6-[p-[5-(1-methyl-5-tetrazolylmercapto)pentyloxy]phenoxy]-2,2-dimethylhexanoate], the IC50 in experiment [1] (Mus musculus, 72 h) came out at 6.7 µM. In addition, the inhibition in vivo at 100 mg/kg in the experiment on Ehrlich solid tumor (100 mg/kg) was determined as 40.2%.
As for `CCOC(=O)C(C)(C)CCCCOc1ccc(OCCCCCSc2cccc[n+]2[O-])cc1` [Example 23], the concentration for half-maximal inhibition (IC50) in experiment [1] (Mus musculus, 72 h) is 6.1 µM.
Regarding `CCOC(=O)C(C)(C)CCCCOc1ccc(OCCCCCSc2ncccn2)cc1` [Example 24, ethyl 6-[p-[5-(2-pyrimidylthio)pentyloxy]phenoxy]-2,2-dimethylhexanoate], the IC50 in experiment [1] (Mus musculus, 72 h) was 20.6 µM. In addition, in the experiment on Ehrlich solid tumor (100 mg/kg), the inhibition in vivo at 100 mg/kg stood at 31.7%.
For `CCOC(=O)C(C)(C)CCCCOc1ccc(OCCCCCSC2=NCCS2)cc1` [Example 25], the IC50 in experiment [1] (Mus musculus, 72 h) was found to be 23.5 µM.
`CCOC(=O)C(C)(C)CCCCOc1ccc(OCCCCCSc2nc3ccccc3s2)cc1` [Example 26]: the IC50 in experiment [1] (Mus musculus, 72 h) came out at 42.7 µM. For the same compound, the inhibition in vivo at 100 mg/kg in the experiment with Ehrlich solid tumor (100 mg/kg) is 30%.
For the compound `CCOC(=O)C(C)(C)CCCCOc1ccc(OCCCCCSc2nc3ccccc3[nH]2)cc1` [Example 27], the concentration for half-maximal inhibition (IC50) in experiment [1] (Mus musculus, 72 h) is 4.2 µM.
Still for that read-out and setting: in the case of `CCOC(=O)C(C)(C)CCCCOc1ccc(OCCCCCSc2nccc(O)n2)cc1` [Example 28] it was 18.9 µM.
For the compound `Cn1ccnc1SCCCCCOc1ccc(OCCCCC(C)(C)C(N)=O)cc1` [Example 30], the 50% inhibitory concentration (IC50) in experiment [1] (Mus musculus, 72 h) came out at 2.3 µM. The inhibition in vivo at 100 mg/kg with Ehrlich solid tumor (100 mg/kg) stood at 60.9%.
The like results for `CC(C)(CCCCOc1ccc(OCCCCCSc2ccncc2)cc1)C(N)=O` [Example 31] were, in that order, 2.6 µM and 48.9%.
Regarding `CCOC(=O)C(C)(C)CCCCOc1ccc(OCCCCCSc2ncnc3[nH]cnc23)cc1` [Example 32], the half-inhibitory concentration (IC50) in experiment [1] (Mus musculus, 72 h) turned out to be 2.2 µM. Also, in the experiment with Ehrlich solid tumor (100 mg/kg), the inhibition in vivo at 100 mg/kg amounted to 57.5%.
The like results for `CCOC(=O)C(C)(C)CCCCOc1ccc(OCCCCCSc2nnc(N)s2)cc1` [Example 33] were, in that order, 7.7 µM and 59.5%.
As to `Cn1nnnc1SCCCCCOc1ccc(OCCCCC(C)(C)C(N)=O)cc1` [Example 34], the IC50 in experiment [1] (Mus musculus, 72 h) is 4 µM.
Regarding `CCOC(=O)C(C)(C)CCCCOc1ccc(OCCCCCOc2ccccn2)cc1` [Example 35, ethyl 6-[p-[5-(2-pyridyloxy)pentyloxy]phenoxy]-2,2-dimethylhexanoate], the IC50 in experiment [1] (Mus musculus, 72 h) came to 8.6 µM. In the experiment on Ehrlich solid tumor (100 mg/kg), the inhibition in vivo at 100 mg/kg is 35.9%.
For `CCOC(=O)C(C)(C)CCCCOc1ccc(OCCCCCn2cnc3ccccc32)cc1` [Example 36], in experiment [1] (Mus musculus, 72 h), the IC50 is 3.8 µM.
The same measure, in the same setting: in the case of `CCOC(=O)C(C)(C)CCCCOc1cccc(OCCCCCn2ccnc2)c1` [Example 37] it was 4.6 µM; in that of `CCOC(=O)C(C)(C)CCCCOc1ccc(OCCCCCn2cnc3cncnc32)cc1` [Example 39], 4.1 µM.
Consider `CCOC(=O)C(C)(C)CCCCOc1ccc(OCCCCCOc2ccccc2-c2ccccc2)cc1` [Example 40], for which, in the experiment with Ehrlich solid tumor (100 mg/kg), the inhibition in vivo at 100 mg/kg is 46.9%.
Take `CCOC(=O)C(C)(C)CCCCOc1ccc(OCCCCCOc2ccncc2)cc1` [Example 41]: the IC50 in experiment [1] (Mus musculus, 72 h) worked out at 7.4 µM. Moreover, in the experiment on Ehrlich solid tumor (100 mg/kg), the inhibition in vivo at 100 mg/kg came to 38.7%.
With `CCOC(=O)C(C)(C)CCCCSc1nnc(SCCCCCn2ccnc2)s1` [Example 42, ethyl 6-[2-[5-(1-imidazolyl)pentylthio)-1,3,4-thiadiazol-5-ylthio]-2,2-dimethylhexanoate], in experiment [1] (Mus musculus, 72 h), the IC50 was 4.4 µM. In addition, in the experiment with Ehrlich solid tumor (50 mg/kg), the inhibition in vivo at 50 mg/kg was found to be 53.1%.
As for `CCOC(=O)C(C)(C)CCCCOc1ccc(OCCCCCSc2nc3ncccc3[nH]2)cc1` [Example 43, ethyl 6-[p-[5-(1H-imidazo[4,5-b]pyridin-2-ylthio)pentyloxy]phenoxy]-2,2-dimethylhexanoate], the IC50 in experiment [1] (Mus musculus, 72 h) was determined as 8 µM. In addition, the inhibition in vivo at 100 mg/kg with Ehrlich solid tumor (100 mg/kg) was 55.5%.
The like results for `CC(C)(CCCCOc1ccc(OCCCCCSc2nc3cccnc3[nH]2)cc1)C(N)=O` [Example 44] were, in that order, 3.7 µM and 46.1%.
The like results for `CCOC(=O)C(C)(C)CCCCOc1ccc(OCCCCCn2cncn2)cc1` [Example 48, ethyl 6-[p-[5-(1,2,4-triazol-1-yl)pentyloxy]phenoxy]-2,2-dimethylhexanoate] were, in that order, 5.5 µM and 46.3%.
With `CNC(=O)C(C)(C)CCCCOc1ccc(OCCCCCn2ccnc2)cc1` [Example 49, 6-[p-[5-(1-imidazolyl)pentyloxy]phenoxy]-2,2-dimethylhexanoic acid methylamide], the IC50 in experiment [1] (Mus musculus, 72 h) stood at 5.5 µM.
The same measure, in the same setting: the figure for `CN(C)C(=O)C(C)(C)CCCCOc1ccc(OCCCCCn2ccnc2)cc1` [Example 50] is 1.8 µM.
Regarding `CCCCCCCCCCNC(=O)C(C)(C)CCCCOc1ccc(OCCCCCn2ccnc2)cc1` [Example 51], the IC50 in experiment [1] (Mus musculus, 72 h) came out at 0.6 µM. Also, in the experiment with Ehrlich solid tumor (50 mg/kg), the inhibition in vivo at 50 mg/kg amounted to 42.5%.
`CC(C)(CCCCOc1ccc(OCCCCCn2ccnc2)cc1)C(=O)NC1CCCCC1` [Example 52]: in experiment [1] (Mus musculus, 72 h), the IC50 came out at 3.6 µM. Besides, the inhibition in vivo at 100 mg/kg in the experiment with Ehrlich solid tumor (100 mg/kg) came out at 55.7%.
